Results on 4 compounds are retold here after ChEMBL document CHEMBL2176887, “Chemokine receptor antagonists” (J Med Chem, 2012).

Each structure is given as a SMILES string.

Series [1] in a line: Oral bioavailability in dog. The format is ADME, organism-based, Canis lupus familiaris. Conditions: in vivo.
The target of series [2] is T1, C-C chemokine receptor type 1 (Homo sapiens, UniProt P32246).
T1 sequence (P32246 whole entry): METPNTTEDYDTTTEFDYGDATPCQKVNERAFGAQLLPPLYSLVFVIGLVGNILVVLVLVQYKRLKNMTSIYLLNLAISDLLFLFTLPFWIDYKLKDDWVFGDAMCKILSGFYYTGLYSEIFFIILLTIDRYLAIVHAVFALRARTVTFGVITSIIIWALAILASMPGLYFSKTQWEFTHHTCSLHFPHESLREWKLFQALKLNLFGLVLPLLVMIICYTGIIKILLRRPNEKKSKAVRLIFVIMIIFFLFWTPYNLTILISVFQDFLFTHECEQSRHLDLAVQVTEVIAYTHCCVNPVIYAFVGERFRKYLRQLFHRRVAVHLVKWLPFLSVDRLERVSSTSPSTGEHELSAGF

The target in series [3] is T2, Muscarinic acetylcholine receptor M2 (Homo sapiens, UniProt P08172).
T2 sequence (P08172 whole entry): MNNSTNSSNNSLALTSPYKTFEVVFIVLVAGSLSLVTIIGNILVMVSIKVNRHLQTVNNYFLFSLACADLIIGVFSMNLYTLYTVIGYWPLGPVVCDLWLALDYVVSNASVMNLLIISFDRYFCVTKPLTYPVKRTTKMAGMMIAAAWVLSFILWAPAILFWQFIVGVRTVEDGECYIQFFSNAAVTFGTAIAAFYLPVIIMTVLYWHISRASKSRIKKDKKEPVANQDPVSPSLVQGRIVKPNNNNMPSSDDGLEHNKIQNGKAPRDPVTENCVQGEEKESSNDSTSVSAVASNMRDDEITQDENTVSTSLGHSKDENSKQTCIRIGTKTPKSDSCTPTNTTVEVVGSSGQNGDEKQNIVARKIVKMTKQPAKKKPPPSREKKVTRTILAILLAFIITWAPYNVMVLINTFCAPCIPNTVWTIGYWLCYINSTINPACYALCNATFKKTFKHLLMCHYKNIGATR
Description: Binding affinity to muscarinic M2 receptor

A short description of series [4]: Half life in rat. The format is ADME, organism-based. Conditions: in vivo.
The nature of a further series: physchem. Particulars: octanol/water.
Series [5] is described as follows: Oral bioavailability in rat. The format is ADME, organism-based. Conditions: in vivo.
For another series, the species on record is Cavia porcellus. Briefly: Inhibition of CCL3-induced immune cell recruitment in guinea pig sensitization model. The format is functional, organism-based.
For series [6], the target named is C-C chemokine receptor type 5 (Homo sapiens, UniProt P51681).
Chain of C-C chemokine receptor type 5 (P51681 whole entry): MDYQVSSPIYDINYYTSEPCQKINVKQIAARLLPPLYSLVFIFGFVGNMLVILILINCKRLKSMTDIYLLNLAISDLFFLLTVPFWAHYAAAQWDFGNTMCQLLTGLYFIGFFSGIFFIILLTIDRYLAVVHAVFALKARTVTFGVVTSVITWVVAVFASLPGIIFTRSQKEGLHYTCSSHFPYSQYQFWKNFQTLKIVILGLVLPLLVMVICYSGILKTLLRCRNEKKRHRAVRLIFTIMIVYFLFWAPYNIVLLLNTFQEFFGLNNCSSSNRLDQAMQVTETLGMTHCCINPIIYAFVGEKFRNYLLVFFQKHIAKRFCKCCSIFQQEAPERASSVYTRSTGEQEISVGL
The target of series [7] is T1, C-C chemokine receptor type 1. As to the kind of experiment: Antagonist activity at CCR1. The format is functional.
Series [8] is described as follows: Half life in human. The format is ADME, organism-based. Particulars: in vivo.
The nature of series [9]: Binding affinity to rat CCR1 by radioligand binding assay.
Series [10] deals with C-C chemokine receptor type 2 (Homo sapiens, UniProt P41597).
Chain of C-C chemokine receptor type 2 (P41597 whole entry): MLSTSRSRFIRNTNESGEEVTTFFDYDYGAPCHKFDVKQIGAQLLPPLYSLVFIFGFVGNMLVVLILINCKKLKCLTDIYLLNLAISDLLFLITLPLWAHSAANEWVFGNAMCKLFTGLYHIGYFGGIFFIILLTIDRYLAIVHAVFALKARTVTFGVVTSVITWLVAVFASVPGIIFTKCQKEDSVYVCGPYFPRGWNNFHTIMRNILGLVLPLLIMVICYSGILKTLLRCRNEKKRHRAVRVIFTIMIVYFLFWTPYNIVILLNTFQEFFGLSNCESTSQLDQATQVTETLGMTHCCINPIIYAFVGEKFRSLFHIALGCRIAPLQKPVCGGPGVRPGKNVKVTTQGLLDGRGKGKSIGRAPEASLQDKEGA

Description for physchem: Lipophilicity, log P of the compound

For the compound `CC1(C)CN(CC/C=C2/c3cc(C(=O)O)ccc3OCc3ncccc32)C[C@H](c2ccc(Cl)cc2)[C@H]1O`, the results for the bioavailability in series [1] and in series [5] were 100% and 35%, respectively. Also, the Ki is 2.3 nM in series [2], 1.3 nM in [3] and 1 nM in [6]. Besides, the half-life in series [4] is 3 h. In “physchem”, the logP worked out at 5.1. Moreover, the EC50 in the series listed under Cavia porcellus is 0.03 mg/kg.

`CO[C@@H]1COCC[C@@H]1NC1CC[C@@](C(=O)N2CCc3ncc(C(F)(F)F)cc3C2)(C(C)C)C1` (some centres not stated) registered a half-maximal inhibitory concentration (IC50) in [7] of 5 nM.

With `C[C@@H]1CN(Cc2ccc(F)cc2)CCN1C(=O)COc1ccc(Cl)cc1NC(N)=O` [BX 471 FREE BASE], the half-life in series [8] was 2.3 h. In [9], the Kd came to 121 nM.

On to `Cc1cnc(C(=O)c2ncnc3[nH]ccc23)c(NS(=O)(=O)c2ccc(Cl)c(C(F)(F)F)c2)c1` [ILACIRNON], for which, in [10], the IC50 is 5 nM. This lies in the single-digit nanomolar range.

The bioavailability is dose-corrected exposure relative to a reference, in per cent. A higher bioavailability goes with good availability. The term Ki denotes a measure of affinity in units of concentration, obtained from inhibition or displacement. Lower therefore signals tighter binding. By half-life is commonly meant the time in which the quantity being followed falls by half. High values mean slow decline, low ones rapid decline. As usually defined, the logP is the decadic logarithm of the partition coefficient of the neutral form, usually between octanol and water. Low values mean a more hydrophilic compound, high ones a more lipophilic compound. One may read the IC50 as the point on the concentration scale where inhibition reaches its midpoint. Usually Kd stands for a measure of binding affinity in units of concentration. A high value points to weaker binding.
